{"source": "patent US20240000741A1", "about": "“ALL-TRANS RETINOIC ACID ENHANCES RADIOTHERAPY AND OVERCOMES IMMUNE SUPPRESSION FOR CANCER THERAPY” (The University of Chicago, priority 2022, published 2024)", "key": {"nitrite (iNOS product)": {"tested_on": "nitrite (iNOS product)", "experiment": "Nitrite assay of tumor fragments cultured ex vivo", "assay_type": "in vivo, mouse", "conditions": "IR+RA treated tumors, day 4, 2 hours culture", "experimental": "Whole tumors were excised at indicated time point post treatment. Tumors were weighed and homogenized in PBS with the presence of protease inhibitor cocktails at a ratio of 1 ml per gram of tissue. 25 μl of supernatants were subjected to a bead-based cytokine and chemokine assay (a mouse inflammation panel and chemokine panel sold under the tradename LEGENDPLEX™ (BioLegend, San Diego, California, United States of America). The assays were analyzed using a LSRII flow cytometer and software sold under the tradename LEGENDPLEX™ (both from BioLegend, San Diego, California, United States of America). IFN-γ was measured using IFN-γ flex CBA set (BD Biosciences, Franklin Lakes, New Jersey, United States of America). TNF-α concentration was measured using ELISA kit from R&D Systems (MTA00B; Minneapolis, Minnesota, United States of America). For nitrite assay, equal weight of tumors were cut into pieces and cultured in DMEM medium for 2 hours. The production of NO in the supernatants was measured indirectly by measuring the concentration of nitrite by using the Griess reagent nitrite measurement kit (Cell Signaling Technology, Danvers, Massachusetts, United States of America; #13547)."}, "[1]": {"tested_on": "immune cells in non-irradiated tumors", "experiment": "Flow cytometric analysis of non-irradiated tumors in the two-tumor model", "assay_type": "in vivo, mouse", "excerpt": "(§1) Single cell suspensions were obtained as previously described (40). Cells were blocked with anti-Fc receptor (2.4 G2, BioXCell, Lebanon, New Hampshire, United States of America) and stained for live/dead with Zombie UV, followed staining using antibodies against CD45, CD4, CD8, NK1.1, CD11b, CD11c, Ly6C, Ly6G, F4/80, CD44, CD62L.\nMore CD8^+ T and CD4^+ T cells were also observed in the non-irradiated tumors when primary tumors received IR+RA treatment."}, "MC38 cells": {"tested_on": "MC38 cells", "experiment": "Direct cytotoxic/radiosensitizing effect of RA on cultured tumor cells", "assay_type": "cell-based, mouse", "conditions": "RA 0 nM to 2000 nM after IR 0 Gy to 15 Gy, three days", "experimental": "To determine whether RA has direct cytotoxic and/or radiosensitizing effects on tumor cells, MC38 cells were cultured with RA (0 nM to 2000 nM) after IR (0 Gy to 15 Gy) for three days. […] Since both IR and RA regulate immune responses, studies were conducted to examine how the combination treatment changes the tumor immune environment. Using a multiplex assay, the level of chemokines and cytokines in tumors three days after treatment was determined. Following IR+RA treatment, increased levels of CCL2, CCL3, CCL4 and CCL5 (by 2-fold to 3-fold compared to levels in any single treatment), which are involved in monocyte recruitment, were observed. GM-CSF, a critical cytokine for DC generation, increased by more than 5-fold in whole tumor homogenates."}, "[2]": {"tested_on": "bone marrow-derived DCs (BMDCs)", "experiment": "iNOS induction in bone marrow-derived dendritic cells in vitro", "assay_type": "cell-based, mouse", "conditions": "cultured in the presence of RA (200 μM)", "experimental": "Femurs and tibias from 8- to 10-week-old mice were harvested. BMDCs were derived as described (40). The cultured BMDC were collected on day 6 for further experiments. For Inf-MAC induction in vitro, bone marrow cells were cocultured with the presence of 200 μM RA. On day 6, indicated amount of IFN-γ was added directly to the culture. Cells were stained for iNOS and TNF-α after 24-36 hours and analyzed using flow cytometry."}, "immune cells in tumors": {"tested_on": "immune cells in tumors", "experiment": "Flow cytometric analysis of immune cells in treated MC38 tumors and draining lymph nodes", "assay_type": "in vivo, mouse", "excerpt": "as §1\nThe following antibodies were used for high-dimensional flow analysis: BV605-CX3CR, BV650-XCR1, PB-CD11 b, BV510-CD24, BV711-CD64, BV785-F4/80, AF532-CD45, PerCP-Cy5.5-1-A/I-E, PerCP-eFluor710-Flt3, PE-Cy7-CD11c, FITC-Ly6C, PE-iNOS, PE-Dazzle 594-CD103, APC-TNF, Alexa Fluor 700-CD206, and APC-Cy7-SIRPα. For IFN-γ and GrzB (515407) staining, cells were cultured with PMA/ionomycin and brefeldin A (423303, BioLegend, San Diego, California, United States of America) for 6 hours followed by intracellular staining using BD fix/perm intracellular staining kit (554714, BD Biosciences, Franklin Lakes, New Jersey, United States of America). For TNF-α staining, cells were stimulated by PMA/ionomycin and brefeldin A for 4 hours followed by intracellular staining. Foxp3 (17-5773-82, Thermo Fisher Scientific, Waltham, Massachusetts, United States of America) Ki67 (Clone 16-A8, BioLegend, San Diego, California, United States of America) and iNOS staining were performed following Foxp3 staining protocol (00-5523-00, Thermo Fisher Scientific, Waltham, Massachusetts, United States of America). Cells were analyzed on Fortessa flow cytometer (BD Biosciences, Franklin Lakes, New Jersey, United States of America) or on Aurora spectral cytometer (Cytek Biosciences, Fremont, California, United States of America. Data was analyzed with software sold under the tradename FLOWJO software (FlowJo LLC, Ashland, Oregon, United States of America).\nImmune cells in tumors 4 days after the start of the treatment were examined. […] In CD11b+ subsets, Ly6C^+ cells, including CD11c^+Ly6C^+ cells, increased by 4-fold in tumors receiving the combination treatment. […] Next, the DC population was examined by analyzing high-dimensional flow cytometry data using traditional dendritic cell (DC) markers. Monocyte-derived dendritic cells (MoDCs) (Ly6C^+CD11 b^+CD11c^+ MHC-II^+CXCR3^+CD64^+SIRPα^+CD206^− cells), a low level of type two dendritic cells (DC2s) (Ly6C^−CD11b^+CD11c^+MHC-11^+CXCR3^+CD64^−SIRPα+CD206^−) and a very low level of type one dendritic cells (DC1s) (Ly6C^−CD11b^−CD11c^+MHC-11^+ CXCR1^+CD103^+CD64^−) were detected in IR and RA treated tumors."}, "[3]": {"conditions": "8 days after IR+RA combination treatment"}, "[4]": {"conditions": "IR and RA treatment, high-dimensional flow cytometry"}, "[5]": {"conditions": "IR+RA vs single treatment, day 8"}, "[6]": {"conditions": "IR+RA, 4 days after start of treatment"}, "[7]": {"conditions": "after IR+RA combination treatment"}}}
{"smiles": "CC1=C(/C=C/C(C)=C/C=C/C(C)=C/C(=O)O)C(C)(C)CCC1", "note": "[RA, all-trans retinoic acid]", "values": [{"measurement": "nitrite level in culture media of tumors cultured ex vivo", "setting": "nitrite (iNOS product)", "value": 19.8, "unit": "µM"}, {"measurement": "PD-L1 expression on DCs in non-irradiated tumors", "setting": "[1]; 3 days post IR+RA treatment", "value": "Increased"}, {"measurement": "PD-L1 expression on tumor cells in non-irradiated tumors", "setting": "[1]; 3 days post IR+RA treatment", "value": "Increased"}, {"measurement": "CD11c+iNOS+ cells in non-irradiated tumor", "setting": "[1]; [3]", "value": "increased"}, {"measurement": "proportion of CD11b+ cells in non-irradiated tumors", "setting": "[1]; [3]", "value": "significantly increased proportion"}, {"measurement": "proportion of CD11b+CD11c+Ly6C+ cells in non-irradiated tumors", "setting": "[1]; [3]", "value": "significantly increased proportion"}, {"measurement": "CD4+ T cells in non-irradiated tumors", "setting": "[1]; primary tumors received IR+RA", "value": "More"}, {"measurement": "CD8+ T cells in non-irradiated tumors", "setting": "[1]; primary tumors received IR+RA", "value": "More"}, {"measurement": "Foxp3+CD4+ T cells in non-irradiated tumors", "setting": "[1]; primary tumors received IR+RA", "value": "marked decrease"}, {"measurement": "proportion of CD4+ IFN-γ+ cells in non-irradiated tumors", "setting": "[1]; primary tumors received IR+RA", "value": "increased"}, {"measurement": "proportion of CD8+ IFN-γ+ cells in non-irradiated tumors", "setting": "[1]; primary tumors received IR+RA", "value": "increased"}, {"measurement": "proportion of CD8+GzmB+ cells in non-irradiated tumors", "setting": "[1]; primary tumors received IR+RA", "value": "increased"}, {"measurement": "tumor cell death in vitro", "setting": "MC38 cells", "value": "no direct effects"}, {"measurement": "iNOS production in BMDCs", "setting": "[2]", "value": "increased significantly"}, {"measurement": "expression of TNF-α in CD11b+ cells", "setting": "immune cells in tumors; IR and RA combination treatment", "value": "Elevated expression"}, {"measurement": "DC1 population", "setting": "immune cells in tumors; [4]", "value": "not changed"}, {"measurement": "DC2 population", "setting": "immune cells in tumors; [4]", "value": "not changed"}, {"measurement": "level of monocyte-derived dendritic cells (MoDCs)", "setting": "immune cells in tumors; [4]", "value": "significantly induced"}, {"measurement": "increase of CD8+ T cells infiltration in tumors", "setting": "immune cells in tumors; IR+RA compared to IR treated tumors, eight days after treatment commencement, p<0.05", "value": "about 3 fold"}, {"measurement": "ratio of CD8+ IFN-γ+ cells to Treg", "setting": "immune cells in tumors; IR+RA compared to any single treatment, day 8", "value": "increased significantly"}, {"measurement": "percentage of CD8+ IFN-γ+ cells in tumors and draining lymph nodes", "setting": "immune cells in tumors; [5]", "value": "increased"}, {"measurement": "percentage of CD8+GzmB+ cells in tumors and draining lymph nodes", "setting": "immune cells in tumors; [5]", "value": "increased"}, {"measurement": "CD11b+iNOS+ cells in tumors", "setting": "immune cells in tumors; [6]", "value": 11.1, "unit": "%"}, {"measurement": "increase of Ly6C+ cells, including CD11c+Ly6C+ cells, in CD11b+ subsets", "setting": "immune cells in tumors; [6]", "value": 4, "unit": "fold"}, {"measurement": "percentage of CD4+ T cells in tumors", "setting": "immune cells in tumors; IR+RA, day 4 post treatment", "value": "no significant change"}, {"measurement": "percentage of CD8+ T cells in tumors", "setting": "immune cells in tumors; IR+RA, day 4 post treatment", "value": "only a marginal change"}, {"measurement": "percentage of Foxp3+ (Treg) cells in CD4+ T cells", "setting": "immune cells in tumors; IR+RA, day 8", "value": "decreased"}, {"measurement": "CD11b+CD11c+iNOS+TNF-α+ cells in tumors", "setting": "immune cells in tumors; IR+RA, day 8, compared to any other treatment group", "value": "more"}, {"measurement": "number of iNOS-producing Inf-MACs in tumors", "setting": "immune cells in tumors; IR+RA, tumors in CCR2 KO hosts vs WT mice", "value": "significantly lower"}, {"measurement": "CD11b+iNOS+ cells in tumors", "setting": "immune cells in tumors; RA alone, 4 days after start of treatment", "value": 1.8, "unit": "%"}, {"measurement": "Inf-MAC induction by IR plus RA", "setting": "immune cells in tumors; Rag1−/− hosts given IFN-γ−/− T cells compared to WT T cells", "value": "significantly abrogated"}, {"measurement": "Ki67+ proliferation in DLN, CD8+ and CD4+", "setting": "immune cells in tumors; [7]", "value": "increased"}, {"measurement": "percentage of naïve T cells (CD62L+CD44−) in DLN, CD8+ and CD4+", "setting": "immune cells in tumors; [7]", "value": "decreased"}]}
